Results reported in paper PMC10350920, “Development of a 2,4-Diaminothiazole Series for the Treatment of Human African Trypanosomiasis Highlights the Importance of Static–Cidal Screening of Analogues” (Journal of Medicinal Chemistry, 2023).
Like-named read-outs stand apart in the source and are kept apart here.

Columns and labels:
[1] = Kinetic aqueous solubility (laser nephelometry); format: physicochemical; conditions: Milli-Q water with 2.5% DMSO
Protocol: The kinetic aqueous solubility of the test compounds was measured using laser nephelometry. Compounds were subject to serial dilution from 10 to 0.5 mM in DMSO. An aliquot was then mixed with Milli-Q water to obtain an aqueous dilution plate with a final concentration range of 13–250 μM, with a final DMSO concentration of 2.5%. Triplicate aliquots were transferred to a flat-bottomed polystyrene plate which was immediately read on the NEPHELOstar (BMG Lab Technologies). The amount of laser scatter caused by insoluble particulates (relative nephelometry units, RNUs) was plotted against compound concentration using a segmental regression fit, with the point of inflection being quoted as the compound’s aqueous solubility (μM).

[2] = Mammalian cell counter screen (MRC-5); format: cell-based, human; conditions: human, MRC-5 fibroblasts; mean values; number of replicates in parentheses
Protocol: Drug sensitivity assays with BSF T. b. brucei “single marker” S427 and human MRC-5 fibroblasts were conducted as previously described.[43]

[3] = Tolerability / maximum tolerated dose; conditions: NMRI mice, IP
T. brucei RES I = assay: Drug sensitivity, compound 38-resistant clone RES I; format: cell-based, T. b. brucei
Protocol: (§1) Drug sensitivity assays were carried out with BSF T. b. brucei “single marker” S427 or BSF T. b. brucei, Lister 427, MiTat 1.2, clone 221a 2T1 cells,[45] cells grown at 37 °C with 5% CO2 in an HMI-9T medium[46] as previously described.[47] 2T1 cells were initially maintained with 1 μg mL^–1 puromycin and 1 μg mL^–1 phleomycin prior to transfection or 2.5 μg mL^–1 hygromycin and 1 μg mL^–1 phleomycin after transfection. Induction of overexpression was achieved by the addition of 1 μg mL^–1 tetracycline to the culture medium.
(§2) Compound-resistant cell lines were generated by subculturing a clone of T. brucei in the continuous presence of 38. Starting at sublethal concentrations, drug concentrations in two independent cultures were increased in a stepwise manner, usually 2-fold. When parasites were able to survive and grow in concentrations of drugs equivalent to more than 10 times the established EC50 value, the resulting cell lines were cloned by limiting dilution in the presence of the compound. Two clones (RES I-II) were selected for further biological study. A standard alkaline lysis protocol was used to isolate genomic DNA from compound-resistant bloodstream T. brucei parasites (∼1 × 10^8). Whole genome sequencing was performed using a DNB-seq next-generation sequencing platform (BGI, Hong Kong). Sequencing reads (150 bp) were aligned to the T. brucei TREU927 genome (v39; tritrypDB) using Bowtie2[48] and Samtools[49] software. […] Samtools and BCFtools[52] (mpileup) were used to call SNP and indels compared with the wild-type starter clone, where the overall quality score (QUAL) was >100. Artemis[50] was used to analyze chromosome and gene copy number variation, as well as visualization of SNPs.

T. brucei wild-type = assay: Drug sensitivity, wild-type parental line; format: cell-based, T. b. brucei; conditions: Trypanosoma brucei; weighted mean of ≥3 independent experiments
Protocol: as §1, §2

Pharmacokinetics in rats = format: in vivo, Sprague Dawley rats
Protocol: To determine compound exposure, compounds were dosed by gavage (16, 38) at 10 mg kg^–1 free base (16, 38), dose volume; and 5 mL kg^–1 (16, 38), dose vehicle (10% DMSO/40% PEG400/50% Milli-Q) to female NMRI mice, n = 3/dose level (16), or Sprague Dawley rats (38). Blood samples were taken from each mouse/rat at 5, 15, and 30 min, 1, 2, 4, 6, and 8 h postdose and mixed with two volumes of distilled water. After suitable sample preparation, the concentration of the test compound in blood was determined by UPLC–MS/MS using a Quattro Premier XE (Waters, USA). Pharmacokinetic parameters were derived from the mean blood concentration–time curve using PKsolutions software v 2.0 (Summit Research Services, USA).

[4] = system: Tb927.8.6290 overexpressing cell lines (A258P); assay: Drug sensitivity, line overexpressing Tb927.8.6290 A258P; format: cell-based, T. b. brucei; conditions: for EC50: Trypanosoma brucei
Protocol: as §1
The following primers were used to PCR amplify Tb927.8.6290 from genomic DNA isolated from wild-type and 38-resistant trypanosomes 5′-[…]-3′ (PacI site in bold) and 5′-[…]-3′ (BamHI site in bold). The PCR products (1272 bp) were then cloned into the pRPa plasmid.[53] The accuracy of the plasmid constructs was confirmed by in-house Sanger sequencing and then linearized with AscI prior to transfection. The linearized plasmids were introduced into 2T1 T. b. brucei cells following removal of puromycin from the media and selected with 2.5 μg mL^–1 hygromycin and 1 μg mL^–1 phleomycin. Two independent clones were selected for further studies.

stage 2 HAT = assay: Stage 2 model of CNS disease; format: in vivo
[5] = Equilibrium dialysis, free fraction in plasma; format: in vitro ADME, mouse; conditions: matrix not given
Protocol: In brief, a 96-well equilibrium dialysis apparatus was used to determine the free fraction in plasma and the brain (HT Dialysis LLC, Gales Ferry, CT). Isotonic buffer was prepared using 8.69 g of Na2HPO4, 1.9 g of KH2PO4, and 4.11 g of NaCl dissolved in 1 L of Milli-Q water, and the pH was adjusted to 7.4. Artificial CSF was prepared using 3.652 g of NaCl, 93.2 mg of KCl, 119.96 mg of MgCl2, 92.61 mg of CaCl2, and 268 mg of Na2HPO4 heptahydrate dissolved in 0.5 L of water, and the pH was adjusted to 7.4. Membranes [12–14 (plasma) or 6–9 (brain) kDA cutoff] were conditioned in deionized water for 60 min, followed by conditioning in 80:20 deionized water/ethanol for 20 min, and then rinsed in isotonic buffer (plasma) or […] (brain) before use. Female CD1 mouse plasma was defrosted and centrifuged for 10 min at 3000 rpm (Allegra X12-R, Beckman Coulter, USA). The control mouse brain was homogenized in two volumes of artificial CSF in a Covaris S2 acoustic homogenizer. Plasma or brain homogenate was spiked with the test compound (10 μg mL^–1), and 150 μL aliquots (n = 3 replicate determinations) were loaded into the 96-well equilibrium dialysis plate. Dialysis versus 150 μL of isotonic buffer (plasma) or artificial CSF (brain) was carried out for 5 h in a temperature-controlled incubator at 37 °C (Barworld Scientific Ltd, UK) using an orbital microplate shaker at 125 rpm (Barworld Scientific Ltd, UK). At the end of the incubation period, aliquots of plasma/homogenized brain or buffer were transferred to a clean 96-well plate, and the composition in each well was balanced with control fluid, such that the volume of buffer to the matrix was the same. Sample extraction was performed by the addition of 400 μL of acetonitrile containing an appropriate internal standard. Samples were allowed to mix for 1 min and then centrifuged at 3000 rpm in 96-well blocks for 10 min (Allegra X12-R, Beckman Coulter, USA). All samples were analyzed by means of UPLC/MS/MS on a Quattro Premier XE or Micro TQs mass spectrometer (Waters Corporation, USA). The unbound fraction was determined as the ratio of the peak area in the buffer to that in the matrix.

[6] = Pharmacokinetics in HRN mice; conditions: IP, 10 mg kg^–1
[7] = male, Sprague Dawley, whole blood, rat, PO, 10 mg kg^–1

Row | Compound | solubility [1] [µg/mL] | EC50 [2] [nM] | maximum dose chosen following maximum tolerated dose study [3] [mg kg^–1] | EC50 (T. brucei RES I; Trypanosoma brucei, read-out: EC50, RES I) [nM] | fold resistance, RES I (T. brucei RES I; relative to the parental wild-type, in brackets) | EC50 (T. brucei wild-type) [nM] | free blood Cmax (Pharmacokinetics in rats; male SD rats, 10 mg kg^–1 PO) [ng mL^–1] | AUC (Pharmacokinetics in rats; [7]) [ng·h/mL] | Cmax (Pharmacokinetics in rats; [7]) [ng/mL] | Tmax (Pharmacokinetics in rats; [7]) [h] | EC50 ([4]; read-out: EC50, A258P +TET) [nM] | EC50 ([4]; read-out: EC50, A258P –TET) [nM] | fold shift, A258P ([4]; −TET vs +TET EC50, in brackets) | efficacy in stage 2 disease model (stage 2 HAT) | Fu (free fraction) [5] | AUC [6] | Tmax [6] [h]
1 | CC(C)(O)CC(=O)c1sc(Nc2ccc(F)c(F)c2)nc1N [Compound 38, 1-(4-Amino-2-((3,4-difluorophenyl)amino)thiazol-5-yl)-3-hydroxy-3-methylbutan-1-one] | > 100 | 46000 | 100 | 2200 ± 84 | 7 | 310 ± 4 | 195 | 7830 | 1400 | 4 | 12000 ± 250 | 310 ± 9 | 40 |  |  |  | 
2 | (4-Amino-2-(cyclohexylamino)thiazol-5-yl)(2,6-difluorophenyl)methanone [Compound 16] |  |  |  |  |  |  |  |  |  |  |  |  |  | not efficacious | 0.03 | 1,000,000 ng mL h^–1 | 0.50
